Test results from PubChem BioAssay AID1845219 (Molecular Pharmacology Branch, DTP, NCI, 2023).
“And” between values parts separate entries of the source, which are not always exact repeats. Equal entries are not always repeated. The source made the active and inactive calls. Rule for the calls: active = viability on the fitted dose curve at most 10% of control; inactive = the rest.

Test system: SYO-1 tumor spheroids, viability % test/control
Test: Anticancer human tumor SYO-1 cell line growth inhibition;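 note: spheroids exposed to agents for 7 days before viability read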;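 for viability, T/C: 100% = DMSO vehicle control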
Conditions: spheroids with HUVEC and MSC; for viability, T/C: stronger effect = lower value
How it was run: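 Complex spheroids of malignant cells with endothelial cells and mesenchymal stem cells; agents alone or combined, from near clinical Cmax (or 10 microM if unknown) down in half-log steps, 0.25% DMSO final.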

Compound: COc1ccc([C@@H](O)c2cc(-c3ncnc4cc(N5CCOCC5)ccc34)c(F)cc2Cl)nn1 + Cn1nnc2c(C(N)=O)ncn2c1=O
- IC50 (curve of first compound, second compound 1 µM): 4.95 µM
- IC50 (curve of first compound, second compound 3.16 µM): 4.59 µM
- IC50 (curve of first compound, second compound 10 µM): 4.93 µM
- IC50 (curve of first compound, second compound 31.6 µM): 4.12 µM
- IC50 (curve of first compound, second compound 100 µM): 1.97 µM
- viability, T/C (second compound 1 µM, first compound 0.0316 µM): 107%
- viability, T/C (second compound 1 µM, first compound 0.1 µM): 112%
- viability, T/C (second compound 1 µM, first compound 0.316 µM): 112%
- viability, T/C (second compound 1 µM, first compound 1 µM): 107%
- viability, T/C (second compound 1 µM, first compound 3.16 µM): 77.3%
- viability, T/C (second compound 1 µM, first compound 10 µM): 7.18%
- viability, T/C (second compound 3.16 µM, first compound 0.0316 µM): 101%
- viability, T/C (second compound 3.16 µM, first compound 0.1 µM): 106%
- viability, T/C (second compound 3.16 µM, first compound 0.316 µM): 108%
- viability, T/C (second compound 3.16 µM, first compound 1 µM): 105%
- viability, T/C (second compound 3.16 µM, first compound 3.16 µM): 68.3%
- viability, T/C (second compound 3.16 µM, first compound 10 µM): 11.9%
- viability, T/C (second compound 10 µM, first compound 0.0316 µM): 108%
- viability, T/C (second compound 10 µM, first compound 0.1 µM): 108%
- viability, T/C (second compound 10 µM, first compound 0.316 µM): 110%
- viability, T/C (second compound 10 µM, first compound 1 µM): 107%
- viability, T/C (second compound 10 µM, first compound 3.16 µM): 74.6%
- viability, T/C (second compound 10 µM, first compound 10 µM): 10.7%
- viability, T/C (second compound 31.6 µM, first compound 0.0316 µM): 116%
- viability, T/C (second compound 31.6 µM, first compound 0.1 µM): 110%
- viability, T/C (second compound 31.6 µM, first compound 0.316 µM): 111%
- viability, T/C (second compound 31.6 µM, first compound 1 µM): 109%
- viability, T/C (second compound 31.6 µM, first compound 3.16 µM): 59.4%
- viability, T/C (second compound 31.6 µM, first compound 10 µM): 18.4%
- viability, T/C (second compound 100 µM, first compound 0.0316 µM): 113%
- viability, T/C (second compound 100 µM, first compound 0.1 µM): 116%
- viability, T/C (second compound 100 µM, first compound 0.316 µM): 107%
- viability, T/C (second compound 100 µM, first compound 1 µM): 80.2%
- viability, T/C (second compound 100 µM, first compound 3.16 µM): 29%
- viability, T/C (second compound 100 µM, first compound 10 µM): 2.71%

Compound: CNCc1ccc(-c2cc(-c3nc(-c4ccc(S(=O)(=O)C(C)C)cc4)cnc3N)on2)cc1
- viability, T/C (compound 0.00949 µM): 101% and 100% and 109%
- viability, T/C (compound 0.03 µM): 101% and 99.2% and 99%
- viability, T/C (compound 0.0949 µM): 72.5% and 86.8% and 89.3%
- viability, T/C (compound 0.3 µM): 3.37% and 4.34% and 3.43%
- viability, T/C (compound 0.949 µM): 0.29% and 0.76% and 0.36%
- viability, T/C (compound 3 µM): 0.18% and 0.19% (2×)
- IC50 (curve of compound): 0.138 µM and 0.159 µM and 0.161 µM

Compound: CC(C)n1c(=O)n(C)c2cnc3cc(F)c(-c4ccc(OCCCN5CCCCC5)nc4)cc3c21
- viability, T/C (compound 0.0316 µM): 105% and 101% and 96.7%
- viability, T/C (compound 0.1 µM): 103% and 101% and 98.9%
- viability, T/C (compound 0.316 µM): 84.4% and 102% and 93.8%
- viability, T/C (compound 1 µM): 103% and 102% and 104%
- viability, T/C (compound 3.16 µM): 107% and 103% and 104%
- viability, T/C (compound 10 µM): 64.1% and 48% and 48.3%
- IC50 (curve of compound): > 10 µM and 9.6 µM and 9.62 µM

Compound: Cc1sc2c(c1C)C(c1ccc(Cl)cc1)=NC(CC(=O)Nc1ccc(O)cc1)c1nnc(C)n1-2 (stereo unspecified) + COc1cc2c(cc1O)CCNC21CSC2c3c(OC(C)=O)c(C)c4c(c3C(COC1=O)N1C(O)C3Cc5cc(C)c(OC)c(O)c5C(C21)N3C)OCO4
- IC50 (curve of first compound, second compound 30 pM): 0.0529 µM
- IC50 (curve of first compound, second compound 94.9 pM): 0.0432 µM
- IC50 (curve of first compound, second compound 0.0003 µM): < 0.00949 µM
- IC50 (curve of first compound, second compound 0.000949 µM): < 0.00949 µM
- IC50 (curve of first compound, second compound 0.003 µM): < 0.00949 µM
- viability, T/C (second compound 30 pM, first compound 0.00949 µM): 89%
- viability, T/C (second compound 30 pM, first compound 0.03 µM): 86.8%
- viability, T/C (second compound 30 pM, first compound 0.0949 µM): 12.1%
- viability, T/C (second compound 30 pM, first compound 0.3 µM): 0.72%
- viability, T/C (second compound 30 pM, first compound 0.949 µM): 0.4%
- viability, T/C (second compound 30 pM, first compound 3 µM): 0.28%
- viability, T/C (second compound 94.9 pM, first compound 0.00949 µM): 86.1%
- viability, T/C (second compound 94.9 pM, first compound 0.03 µM): 69%
- viability, T/C (second compound 94.9 pM, first compound 0.0949 µM): 8.96%
- viability, T/C (second compound 94.9 pM, first compound 0.3 µM): 0.68%
- viability, T/C (second compound 94.9 pM, first compound 0.949 µM): 0.34%
- viability, T/C (second compound 94.9 pM, first compound 3 µM): 0.28%
- viability, T/C (second compound 0.0003 µM, first compound 0.00949 µM): 6.25%
- viability, T/C (second compound 0.0003 µM, first compound 0.03 µM): 2.72%
- viability, T/C (second compound 0.0003 µM, first compound 0.0949 µM): 0.68%
- viability, T/C (second compound 0.0003 µM, first compound 0.3 µM): 0.58%
- viability, T/C (second compound 0.0003 µM, first compound 0.949 µM): 0.32%
- viability, T/C (second compound 0.0003 µM, first compound 3 µM): 6.38%
- outcome (second compound 0.000949 µM, first compound 0.00949 µM): active
- viability, T/C (second compound 0.000949 µM, first compound 0.03 µM): 0.65%
- viability, T/C (second compound 0.000949 µM, first compound 0.0949 µM): 0.51%
- viability, T/C (second compound 0.000949 µM, first compound 0.3 µM): 0.24%
- viability, T/C (second compound 0.000949 µM, first compound 0.949 µM): 0.06%
- viability, T/C (second compound 0.000949 µM, first compound 3 µM): 0.12%
- viability, T/C (second compound 0.003 µM, first compound 0.00949 µM): 0.08%
- viability, T/C (second compound 0.003 µM, first compound 0.03 µM): 0.1%
- viability, T/C (second compound 0.003 µM, first compound 0.0949 µM): 0.09%
- viability, T/C (second compound 0.003 µM, first compound 0.3 µM): 0.1%
- viability, T/C (second compound 0.003 µM, first compound 0.949 µM): 0.09%
- viability, T/C (second compound 0.003 µM, first compound 3 µM): 0.21%

Compound: O=C(c1cc(Cc2n[nH]c(=O)c3ccccc23)ccc1F)N1CCN(C(=O)C2CC2)CC1
- viability, T/C (compound 0.0949 µM): 102% (2×) and 103%
- viability, T/C (compound 0.3 µM): 100% and 103% and 99.2%
- viability, T/C (compound 0.949 µM): 90.7% and 93.7% and 94.1%
- viability, T/C (compound 3 µM): 14.7% and 32.7% and 11%
- viability, T/C (compound 9.49 µM): 3.59% and 3.04% and 2.51%
- viability, T/C (compound 30 µM): 2.83% and 2.91% and 2.43%
- IC50 (curve of compound): 1.76 µM and 2.16 µM and 1.75 µM
